The subject of one experiment is DLD-1. The experiment in a line: Caspase activation assay in DLD-1 cells. The class given is cell-based. Conditions: Homo sapiens, 24 h incubation, read-out: Caspase activation potency EC50 DLD-1. The protocol:
(§1) Human breast cancer cell lines T-47D and ZR-75-1, human colon cancer cell line DLD-1 and human non-small cell lung cancer cell line H1299 were grown according to media component mixtures designated by American Type Culture Collection+10% FCS (Invitrogen Corporation), in a 5% CO2−95% humidity incubator at 37° C. T-47D and ZR-75-1 cells were maintained at a cell density between 30 and 80% confluency at a cell density of 0.1 to 0.6×10^6 cells/mL. Cells were harvested at 600×g and resuspended at 0.65×10^6 cells/mL into appropriate media+10% FCS. An aliquot of […] of cells was added to a well of a 96-well microtiter plate containing 5 μl of a 10% DMSO in RPMI-1640 media solution containing about 0.16 to 10 μM of 2,7,8-triamino-4-(3-bromo-4,5-dimethoxy-phenyl)-3-cyano-4H-chromene (1) or other test compounds (0.016 to 1 μM final). An aliquot of 45 μl of cells was added to a well of a 96-well microtiter plate containing 5 μl of a 10% DMSO in RPMI-1640 media solution without test compound as the control sample. The samples were mixed by agitation and then incubated at 37° C. for 24 h in a 5% CO2−95% humidity incubator. […] Using a fluorescent plate reader (Model 1420 Wallac Instruments), an initial reading (T=0) was made about 1-2 min after addition of the substrate solution, employing excitation at 485 nm and emission at 530 nm, to determine the background fluorescence of the control sample. After the 3 h incubation, the samples were read for fluorescence as above (T=3 h).
(§2) The Relative Fluorescence Unit values (RFU) were used to calculate the sample readings as follows: RFU(T=3h)−Control RFU(T=0)=Net RFU(T=3h)
(§3) The activity of caspase cascade activation was determined by the ratio of the net RFU value for 2,7,8-triamino-4-(3-bromo-4,5-dimethoxy-phenyl)-3-cyano-4H-chromene or other test compound to that of control samples. The EC50 (nM) was determined by a sigmoidal dose-response calculation (Prism 2.0, GraphPad Software Inc.).

Another experiment relates to HCT116. The experiment in a line: Inhibition of cell proliferation (GI50), HCT116. The experiment is classed as cell-based. Particulars: Homo sapiens, HCT-116; HCT116 cells, 72 h, CellTiter-Glo. The protocol: (§4) Human breast cancer cells MX-1 and MDAMB435, hepatocarcinoma cells SNU398, colon cancer cells HCT116 and HeLa cells were grown and harvested as in Example 7. An aliquot of […] of cells (4.4×10^4 cells/mL) was added to a well of a 96-well microtiter plate containing 5 μL of a 10% DMSO in RPMI-1640 media solution containing 10 nM to 100 μM of R(−)-2,7,8-triamino-4-(3-bromo-4,5-dimethoxy-phenyl)-3-cyano-4H-chromene (1 nM to 10 μM final). An aliquot of 45 μL of cells was added to a well of a 96-well microtiter plate containing 5 μL of a 10% DMSO in RPMI-1640 media solution without compound as the control sample for maximal cell proliferation (LMax). The samples were mixed by agitation and then incubated at 37° C. for 72 h in a 5% CO2−95% humidity incubator. After incubation, the samples were removed from the incubator and 25 μL of CellTiter-Glo™ reagent (Promega) was added. The samples were mixed by agitation and incubated at room temperature for 10-15 min. Plates were then read using a luminescent plate reader (Model SPECTRAfluor Plus, Tecan) to give Ltest values.
(§5) Baseline for GI50 (dose for 50% inhibition of cell proliferation) of initial cell numbers was determined by adding an aliquot of 45 μL of cells or 45 μL of media, respectively, to wells of a 96-well microtiter plate containing 5 μL of a 10% DMSO in RPMI-1640 media solution. […]
(In general: ATP-based viability assays read luminescence as a measure of living cells.)

In a further experiment the test system is solid tumor cells. Nature of the experiment: Caspase cascade activation and induction of apoptosis, overall statement. The class given is cell-based, human. Particulars: summary of Table I. The method, then:
as §1, §3

For a further experiment, the system named is HeLa cells. The experiment in a line: Inhibition of cell proliferation (GI50), HeLa. The class given is cell-based. Conditions: Homo sapiens, 72 h, CellTiter-Glo. The method, then:
as §4, §5

The subject of a further experiment is T-47D. The experiment in a line: Caspase activation assay in T-47D cells. The experiment is classed as cell-based. Conditions: Homo sapiens; T47D cells, 24 h incubation; read-out: Caspase activation potency EC50 T47D. The method, then: Human breast cancer cell lines T-47D and ZR-75-1, human colon cancer cell line DLD-1 and human non-small cell lung cancer cell line H1299 were grown according to media component mixtures designated by American Type Culture Collection+10% FCS (Invitrogen Corporation), in a 5% CO2−95% humidity incubator at 37° C. T-47D and ZR-75-1 cells were maintained at a cell density between 30 and 80% confluency at a cell density of 0.1 to 0.6×10^6 cells/mL. Cells were harvested at 600×g and resuspended at 0.65×10^6 cells/mL into appropriate media+10% FCS. An aliquot of […] of cells was added to a well of a 96-well microtiter plate containing 5 μl of a 10% DMSO in RPMI-1640 media solution containing about 0.16 to 10 μM of 2,7,8-triamino-4-(3-bromo-4,5-dimethoxy-phenyl)-3-cyano-4H-chromene (1) or other test compounds (0.016 to 1 μM final). An aliquot of 45 μl of cells was added to a well of a 96-well microtiter plate containing 5 μl of a 10% DMSO in RPMI-1640 media solution without test compound as the control sample. The samples were mixed by agitation and then incubated at 37° C. for 24 h in a 5% CO2−95% humidity incubator. After incubation, the samples were removed from the incubator and 50 μl of a solution containing 20 μM of N-(Ac-DEVD)-N′-ethoxycarbonyl-R110 (SEQ ID No:1) fluorogenic substrate (Cytovia, Inc.; U.S. Pat. No. 6,335,429), 20% sucrose (Sigma), 20 mM DTT (Sigma), 200 mM NaCl (Sigma), 40 mM Na PIPES buffer pH 7.2 (Sigma), and 500 μg/ml lysolecithin (Calbiochem) was added. The samples were mixed by agitation and incubated at room temperature. Using a fluorescent plate reader (Model 1420 Wallac Instruments), an initial reading (T=0) was made about 1-2 min after addition of the substrate solution, employing excitation at 485 nm and emission at 530 nm, to determine the background fluorescence of the control sample. After the 3 h incubation, the samples were read for fluorescence as above (T=3 h).
as §2, §3

The test system of a further experiment is MDAMB435. Nature of the experiment: Inhibition of cell proliferation (GI50), MDAMB435. The experiment is classed as cell-based. Conditions: Homo sapiens, MDA-MB-435; MDAMB435 cells, 72 h, CellTiter-Glo. The method, then: as §4, §5
A further experiment concerns HUVEC cells. Nature of the experiment: HUVEC tube disruption assay. The class given is cell-based. The method, then:
Aliquots of Matrigel basement membrane matrix (300 μl, BD Biosciences, Mississauga, Ontario, Canada) were added to each well of 24-well plates (Fisher Scientific Ltd, Nepean, Ontario, Canada) and allowed to incubate for 1 h at 37° C. HUVEC cells (3×10^4) were added per well in EGM-2 and incubated for 4 h at 37° C. in a 5% CO2 atmosphere to allow the cells to form tube-like structures. Compound 1R was diluted in DMSO to its respective concentrations, added to cells, and allowed to incubate for 1 h at 37° C. in a 5% CO2 atmosphere. Following the incubation, the medium was gently aspirated and fresh EGM-2 was added and cells were further incubated for 24 h. Miroscopy images were recorded with a Zeiss LSM 510 confocal microscope (Zeiss Canada Ltd, Toronto, Ontario, Canada). The effect of compound 1R on capillary tube disruption was evaluated by light microscopy (×40 magnification) and the results are summarized in Table III.

As a reminder, the EC50 is the midpoint of the concentration-response curve. Broadly, the GI50 is the concentration giving 50% growth inhibition. A lower GI50 goes with more potent growth inhibition. What is called inhibition is how much of the control response was suppressed. Turning to `COc1cc([C@H]2C(C#N)=C(N)Oc3c2ccc(N)c3N)cc(Br)c1OC` [Compound 1R, R(−)-2,7,8-triamino-4-(3-bromo-4,5-dimethoxy-phenyl)-3-cyano-4H-chromene], the values for the EC50 in the experiment with DLD-1 and with T-47D were 57 nM and 21 nM, respectively. Also, the concentration for 50% growth inhibition (GI50) with HCT116 amounted to 19 nM; with HeLa cells, 25 nM; in the experiment with MDAMB435, 9 nM. In the experiment on solid tumor cells, the “Caspase cascade activator and inducer of apoptosis (in words)” value is “potent caspase cascade activator and inducer of apoptosis”. Besides, the “Tube formation % inhibition” value in the experiment on HUVEC cells (3.3 nM) is “No inhibition”. Further, the “Lowest concentration that inhibited tube formation” value with HUVEC cells (HUVEC tubes) was 10 nM. Moreover, in the experiment with HUVEC cells (Homo sapiens, HUVEC, 10 nM, read-out: Tube formation % inhibition), the inhibition at 0.01 µM is 75%. Moreover, in the experiment with HUVEC cells (Homo sapiens, HUVEC, 30 nM, read-out: Tube formation % inhibition), the inhibition at 0.03 µM was 100%. Further, the inhibition at 0.1 µM with HUVEC cells (Homo sapiens, HUVEC, 100 nM, read-out: Tube formation % inhibition) is 100%.

Values taken from patent US7968595B2, “Substituted 4-aryl-chromene as activator of caspases and inducer of apoptosis and as antivascular agent and the use thereof” (Cytovia, Inc., priority 2006, dated 2011).
